{"source": "ChEMBL document CHEMBL4402613", "about": "“Targeting ALK2: An Open Science Approach to Developing Therapeutics for the Treatment of Diffuse Intrinsic Pontine Glioma” (J Med Chem, 2020)", "key": {"Activin receptor type-1 [1]": {"biological_target": "T1, Activin receptor type-1 (Homo sapiens, UniProt Q04771)", "T1 sequence (Q04771 whole entry)": "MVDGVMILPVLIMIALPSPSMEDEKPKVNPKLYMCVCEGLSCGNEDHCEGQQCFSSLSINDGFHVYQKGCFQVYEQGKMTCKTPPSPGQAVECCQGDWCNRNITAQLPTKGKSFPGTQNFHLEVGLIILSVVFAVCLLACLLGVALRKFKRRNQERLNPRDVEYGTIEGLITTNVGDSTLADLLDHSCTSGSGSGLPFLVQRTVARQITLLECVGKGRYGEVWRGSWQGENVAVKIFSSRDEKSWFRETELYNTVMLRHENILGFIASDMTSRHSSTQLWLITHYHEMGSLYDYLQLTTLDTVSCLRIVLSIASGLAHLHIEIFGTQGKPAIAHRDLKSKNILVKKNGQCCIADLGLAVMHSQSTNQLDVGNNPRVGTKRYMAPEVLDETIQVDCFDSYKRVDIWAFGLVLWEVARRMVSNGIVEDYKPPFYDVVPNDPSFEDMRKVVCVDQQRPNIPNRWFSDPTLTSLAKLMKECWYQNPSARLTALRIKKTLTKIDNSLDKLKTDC", "test": "Inhibition of C-terminal nanoluciferase-fused ALK2 (unknown origin) expressed in HEK293 cells incubated for 2 hrs followed by NanoBRET NanoGlo Substrate addition by NanoBRET assay", "format": "cell-based"}, "[2]": {"biological_target": "Activin receptor type-1-like (Homo sapiens) (UniProt P37023)", "sequence (P37023 whole entry)": "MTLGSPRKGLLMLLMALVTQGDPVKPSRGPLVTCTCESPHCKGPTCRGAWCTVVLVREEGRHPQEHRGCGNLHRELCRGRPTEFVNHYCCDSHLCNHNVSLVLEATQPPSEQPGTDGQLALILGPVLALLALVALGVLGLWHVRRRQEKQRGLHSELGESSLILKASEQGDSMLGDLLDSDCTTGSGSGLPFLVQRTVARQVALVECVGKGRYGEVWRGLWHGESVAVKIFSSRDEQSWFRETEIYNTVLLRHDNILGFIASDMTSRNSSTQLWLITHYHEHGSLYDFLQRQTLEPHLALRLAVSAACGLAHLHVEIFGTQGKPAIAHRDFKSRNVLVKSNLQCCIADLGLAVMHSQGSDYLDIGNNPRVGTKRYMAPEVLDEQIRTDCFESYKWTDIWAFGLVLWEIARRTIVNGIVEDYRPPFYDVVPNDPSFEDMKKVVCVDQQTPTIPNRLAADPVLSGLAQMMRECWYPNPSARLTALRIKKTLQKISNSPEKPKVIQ", "test": "Inhibition of ALK1 (unknown origin) at 1 uM"}, "[3]": {"biological_target": "Bone morphogenetic protein receptor type-1B (Homo sapiens) (UniProt O00238)", "sequence (O00238 whole entry)": "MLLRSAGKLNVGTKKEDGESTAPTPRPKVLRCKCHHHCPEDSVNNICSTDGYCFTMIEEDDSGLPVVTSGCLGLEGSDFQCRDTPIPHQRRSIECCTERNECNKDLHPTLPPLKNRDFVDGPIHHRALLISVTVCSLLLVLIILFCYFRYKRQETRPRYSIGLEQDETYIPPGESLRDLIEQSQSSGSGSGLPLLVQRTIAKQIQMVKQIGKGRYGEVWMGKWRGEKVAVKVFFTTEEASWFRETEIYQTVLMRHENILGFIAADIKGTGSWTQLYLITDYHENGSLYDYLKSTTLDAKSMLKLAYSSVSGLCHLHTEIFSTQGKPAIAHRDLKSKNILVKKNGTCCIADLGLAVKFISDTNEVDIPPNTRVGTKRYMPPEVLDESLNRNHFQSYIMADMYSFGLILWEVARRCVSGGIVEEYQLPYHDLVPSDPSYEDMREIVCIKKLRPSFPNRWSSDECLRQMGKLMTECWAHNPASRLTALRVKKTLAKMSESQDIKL", "test": "Inhibition of ALK6 (unknown origin) at 1 uM"}, "Activin receptor type-1 [4]": {"biological_target": "Activin receptor type-1 (Homo sapiens, UniProt Q04771, G328V)", "sequence (Q04771 21-509 G328V limits assumed)": "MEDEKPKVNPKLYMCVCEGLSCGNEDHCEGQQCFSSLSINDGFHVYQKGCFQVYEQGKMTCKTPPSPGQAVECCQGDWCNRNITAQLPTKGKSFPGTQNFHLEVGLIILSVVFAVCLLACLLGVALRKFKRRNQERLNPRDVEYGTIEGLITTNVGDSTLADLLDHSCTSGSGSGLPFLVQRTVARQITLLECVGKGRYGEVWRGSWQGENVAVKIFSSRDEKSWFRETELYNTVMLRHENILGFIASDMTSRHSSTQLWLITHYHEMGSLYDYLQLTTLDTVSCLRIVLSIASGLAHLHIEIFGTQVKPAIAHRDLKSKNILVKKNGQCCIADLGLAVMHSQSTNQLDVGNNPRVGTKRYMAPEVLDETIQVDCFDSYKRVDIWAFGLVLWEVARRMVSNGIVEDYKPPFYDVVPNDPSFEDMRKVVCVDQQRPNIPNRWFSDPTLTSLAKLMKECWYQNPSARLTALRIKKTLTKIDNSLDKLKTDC", "test": "Inhibition of ALK2 G328V mutant (unknown origin)"}, "Activin receptor type-1 [5]": {"biological_target": "Activin receptor type-1 (Homo sapiens, UniProt Q04771, R206H)", "sequence (Q04771 21-509 R206H limits assumed)": "as the sequence (Q04771 21-509 G328V limits assumed) above, with R186H, V308G counted along it", "test": "Inhibition of human ALK2 R206H mutant using casein as substrate in presence of 10 uM [gamma33P] ATP by radioactive assay"}, "[6]": {"conditions": "human, microsomes, 1 h, 1 µM", "description": "Microsomal stability in human liver microsomes assessed as parent compound remaining at 1 uM and 37 degree C measured after 60 mins in presence of NADP+ by LC-QTOF/MS analysis"}, "in vitro": {"test": "in vitro", "conditions": "human, Caco-2", "description": "Apparent permeability across apical to basolateral membrane in human Caco2 cells at 5 uM incubated for 120 mins in orbital shaker by LC-QTOF/MS analysis"}}, "note": "Activity calls are given as the source filed them. No cut-off for these calls is given here.", "data": [{"compound": "COc1cc(-c2cncc(-c3ccc(N4CCN(C)CC4)cc3)c2C)cc(F)c1C(N)=O", "values": [{"measurement": "IC50", "setting": "Activin receptor type-1 [1]", "result": 93, "unit": "nM"}, {"measurement": "inhibition", "setting": "[2]", "result": "Active"}, {"measurement": "inhibition", "setting": "[3]", "result": "Active"}, {"measurement": "IC50", "setting": "Activin receptor type-1 [4]", "result": 16, "unit": "nM"}, {"measurement": "IC50", "setting": "Activin receptor type-1 [5]", "result": 19, "unit": "nM"}, {"measurement": "Stability", "setting": "[6]", "result": "Stable"}, {"measurement": "Papp A→B at 2 h, 5 µM", "setting": "in vitro", "result": 5.5, "unit": "×10⁻⁶ cm/s"}]}]}
